Results published in patent publication US8519145B2, “Aryl compounds as PPAR ligands and their use” (Seoul National University Industry Foundation, priority 2006, dated 2013).
Read-outs that look alike come from different tables or passages of the source.

What was measured:
[1] = Obesity inhibitory effect, high-fat feed mice; type: in vivo, C57BL/6 mice; conditions: 10 mg/kg/day oral, 60 days, feeds containing 35% fat
Description: Obesity Inhibitory Effect
An animal test using mice was performed to confirm the in vivo effect of the compound of the present invention. C57BL/6 (SLC Co.) mice at 8 weeks were used. To induce obesity, feeds containing 35% fat were given. While feeding such high-fat feeds for 60 days, vehicle, S14, S46 and S106 (10 mg/kg/day) were orally administered.

[2] = Morris water maze test in LPS brain disease animal model; type: in vivo, C57BL/6 mice
Description: The therapeutic effect of the compound of the present invention on dementia and Parkinson's disease based on the memory improving effect thereof was investigated using brain disease animal model (C57BL/6 mice at 10 weeks). First, LPS was injected into the mouse brain to construct brain disease animal model. The mice were divided into four groups according to the administration and exercise. The exercise was performed with treadmill at the speed of 2 meter/min for the first 5 minutes, at 5 meter/min for 5 minutes, at 8 meter/min for 5 minutes and at 20 meter/min for the last 5 minutes. At the finish, Morris water maze test was performed. As a result, the therapeutic effect of the compound of the invention on dementia and Parkinson's disease via memory enhancement by the compound and exercise was confirmed in the brain disease animal model.

[3] = target: T1, hPPARδ (Homo sapiens, UniProt Q03181); test: Transfection assay (luciferase reporter), PPARδ; type: cell-based; conditions: CV-1 cells, full length PPAR plasmid, 24 hours
T1 construct: Full length PPARs plasmid DNA; expressed in transfected cells; host or cells: CV-1 cells
T1 sequence (Q03181 1-441): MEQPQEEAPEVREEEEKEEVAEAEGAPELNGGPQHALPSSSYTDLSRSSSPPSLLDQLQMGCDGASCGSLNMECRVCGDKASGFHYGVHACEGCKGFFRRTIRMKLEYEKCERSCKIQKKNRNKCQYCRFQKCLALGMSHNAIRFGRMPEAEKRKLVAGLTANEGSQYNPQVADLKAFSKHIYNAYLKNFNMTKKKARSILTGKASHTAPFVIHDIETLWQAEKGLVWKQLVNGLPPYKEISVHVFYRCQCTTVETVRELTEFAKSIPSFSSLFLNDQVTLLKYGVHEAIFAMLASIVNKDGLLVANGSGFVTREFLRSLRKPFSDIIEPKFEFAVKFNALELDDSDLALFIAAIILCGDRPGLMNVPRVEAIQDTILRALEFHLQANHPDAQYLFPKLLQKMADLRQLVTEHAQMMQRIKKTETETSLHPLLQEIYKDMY
Description: (§1) The PPARδ activity of the compound represented by formula (I) of the present invention was confirmed by transfection assay. In addition, the selectivity to PPAR subtypes, PPARα and PPARγ was examined. Cytotoxicity was tested by MTT assay and in vivo activity was investigated by animal experiment.
(§2) CV-1 cells were used in this assay. The cells were inoculated in a 96-well plate containing DMEM supplemented with 10% FBS, DBS (delipidated) and 1% penicillin/streptomycin and cultured in a 37° C., 5% CO2 incubator. The experiment was performed according to the steps of inoculation, transfection, sample treatment and confirmation. Particularly, CV-1 cells were inoculated in a 96 well-plate (5000 cells/well), followed by transfection 24 hours later. Full length PPARs plasmid DNA, reporter DNA confirming PPARs activity owing to its luciferase activity, β-galactosidase DNA providing information on transfection efficiency, and transfection reagent were used for the transfection. Samples were dissolved in dimethylsulfoxide (DMSO), which were treated to the cells via media at different concentrations. After culturing the cells in the incubator for 24 hours, the cells were lysed by using lysis buffer. Luciferase activity and β-galactosidase activity were measured with Luminometer and a microplate reader. The obtained values of luciferase were modified by the values of β-galactosidase. A graph was made with those values and EC50 was calculated.

[4] = target: T2, hPPARγ (Homo sapiens, UniProt P37231); test: Transfection assay (luciferase reporter), PPARγ; type: cell-based; conditions: CV-1 cells, full length PPAR plasmid, 24 hours
T2 construct: Full length PPARs plasmid DNA; expressed in transfected cells; host or cells: CV-1 cells
T2 sequence (P37231 1-505): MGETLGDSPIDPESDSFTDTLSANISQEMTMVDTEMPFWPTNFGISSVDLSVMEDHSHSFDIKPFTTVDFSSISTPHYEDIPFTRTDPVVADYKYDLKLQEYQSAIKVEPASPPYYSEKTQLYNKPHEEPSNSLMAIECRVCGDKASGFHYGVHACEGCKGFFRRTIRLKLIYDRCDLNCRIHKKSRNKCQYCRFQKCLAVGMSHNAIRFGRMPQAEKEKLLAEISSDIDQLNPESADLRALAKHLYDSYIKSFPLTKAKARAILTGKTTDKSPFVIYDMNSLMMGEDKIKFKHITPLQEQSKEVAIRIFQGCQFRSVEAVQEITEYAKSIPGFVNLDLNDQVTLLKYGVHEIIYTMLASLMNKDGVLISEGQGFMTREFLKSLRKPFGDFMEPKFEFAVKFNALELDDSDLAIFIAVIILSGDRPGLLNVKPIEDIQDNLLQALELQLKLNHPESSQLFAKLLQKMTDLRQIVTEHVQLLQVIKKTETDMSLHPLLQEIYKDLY
Description: as §1, §2

[5] = GTT (glucose tolerance test), diabetes improving effect; type: in vivo, mice; conditions: 10 mg/Kg/day oral; for fasting blood glucose versus control: 57 days; for diabetes improving effect: GTT
Description: Diabetes Improving Effect
GTT (glucose tolerance test) was performed to confirm the diabetes improving effect of the compound of the present invention. Glucose (1.5 g/Kg) was intra-abdominally administered to the mice pre-treated orally with samples for 57 days. Blood glucose was measured every hour. Fasting blood glucose was lower in the S14, S46 and S106 (10 mg/Kg/day) treated groups than in control. […] In the meantime, the blood glucose level was not recovered to normal in the vehicle treated group even after 120 minutes.

[6] = Muscle endurance test (treadmill) in adult mice with forced exercise; type: in vivo, C57BL/6 mice; conditions: 10 mg/kg oral, adult mice at 10 weeks, 30 days treadmill exercise
Description: Particularly, S14, S46 and S106 were orally administered to C57BL/6 mice at 10 weeks at the concentration of 10 mg/kg, during which the mice were forced to exercise. The exercise was performed with treadmill for […] once a day for 30 days, precisely at the speed of 2 meter/min for the first 5 minutes, at 5 meter/min for 5 minutes, at 8 meter/min for 5 minutes and at 20 meter/min for the last 5 minutes. At the finish, muscle endurance and muscle function enhancing effect was tested by using treadmill. As a result, the time (S14 treated group: 1.5 fold, S46 treated group: 1.3 fold, S106 treated group: 1.4 fold increased) and distance (S14 treated group: 1.5 fold, S46 treated group: 1.3 fold, S106 treated group: 1.4 fold increased) of exercise were all increased in the treatment group, compared with the control.

[7] = Muscle endurance test (treadmill), treatment during pregnancy and/or lactation; type: in vivo, mice; conditions: 10 mg/Kg/day
Description: Muscle Endurance Strengthening and Muscle Function Enhancing Effect
An animal test was performed to confirm muscle endurance strengthening and muscle function enhancing effect of the composition of the present invention. Most muscles are generated in developmental stage. Thus, S14, S46 and S106 (10 mg/Kg/day) were treated to pregnant mice in the period of either pregnancy or lactation or both pregnancy and lactation. Weight gaining and growth rate were not much different between fetuses of the control group and the treatment group. Muscles were observed after removing skin. As a result, muscles of the treatment group were red, unlike the control. ATPase staining and immunostaining were performed. As a result, type I muscle fiber was increased in the treatment group. The role of the changes of the muscle fiber in the enhancement of muscle endurance and muscle function was investigated by using treadmill test. As a result, running time was much extended in the treatment group, compared with the control.

[8] = Morris water maze test, treatment during pregnancy and lactation; type: in vivo; conditions: 10 mg/kg oral to pregnant mice in pregnancy and lactation; control 24.2 sec
Description: An animal test was performed to investigate the therapeutic effect of the compound of the present invention on dementia and Parkinson's disease based on the memory improving effect thereof. To confirm the effect of the compound of the present invention in the period of brain development, the compound was orally administered to pregnant mice at the concentration of 10 mg/kg in the periods of pregnancy and lactation. Morris water maze test was performed to detect any changes of the brain functions of the treatment group and the control group. This test facilitates the study of spatial learning and memory, which largely depends on the hippocampus in the brain.

[9] = target: T3, hPPARα (Homo sapiens, UniProt Q07869); test: Transfection assay (luciferase reporter), PPARα; type: cell-based; conditions: CV-1 cells, full length PPAR plasmid, 24 hours
T3 construct: Full length PPARs plasmid DNA; expressed in transfected cells; host or cells: CV-1 cells
T3 sequence (Q07869 1-468): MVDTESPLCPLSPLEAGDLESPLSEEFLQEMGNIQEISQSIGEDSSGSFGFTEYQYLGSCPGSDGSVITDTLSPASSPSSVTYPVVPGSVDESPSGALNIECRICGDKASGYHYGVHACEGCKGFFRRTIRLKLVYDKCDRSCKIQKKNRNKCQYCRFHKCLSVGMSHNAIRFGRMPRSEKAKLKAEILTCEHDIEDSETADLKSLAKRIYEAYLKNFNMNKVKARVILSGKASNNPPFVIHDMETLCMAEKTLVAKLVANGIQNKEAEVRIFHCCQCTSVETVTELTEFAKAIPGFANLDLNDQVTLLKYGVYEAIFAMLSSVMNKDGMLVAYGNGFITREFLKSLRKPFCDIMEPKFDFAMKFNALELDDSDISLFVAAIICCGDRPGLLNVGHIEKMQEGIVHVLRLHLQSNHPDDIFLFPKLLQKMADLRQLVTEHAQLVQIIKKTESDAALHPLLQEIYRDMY
Description: as §1, §2

[10] = target: T1, hPPARδ; conditions: literature, cited from earlier work
[11] = treated in pregnancy + lactation

Row | EC50 [3] | EC50 hPPARγ [4] | EC50 hPPARα [9] | SMILES | weight increase compared with the vehicle group [1] | Results of water maze test ([2]; Exercise (X)) | Results of water maze test ([2]; Exercise (◯)) | fasting blood glucose versus control [5] | diabetes improving effect [5] | distance of exercise, increase compared with the control [6] | time of exercise, increase compared with the control [6] | increasing rate (treatment group/control group), length ([7]; treated in lactation) | increasing rate (treatment group/control group), time ([7]; treated in lactation) | increasing rate (treatment group/control group), length [7, 11] | increasing rate (treatment group/control group), time [7, 11] | increasing rate (treatment group/control group), length ([7]; treated in pregnancy) | increasing rate (treatment group/control group), time ([7]; treated in pregnancy) | average time spent to find the platform [8] | EC50 ([10]; human PPARδ) | selectivity to hPPARδ over PPARα or PPARγ [10]
1 | 3.2 nM | ia | ia | Cc1cc(SC(Cc2ccccc2)c2ccc(-c3ccc(C(F)(F)F)cc3)nc2)ccc1OCC(=O)O (centres unmarked) [Compound 106] | 37% | 23 s | 15 s | lower | had diabetes improving effect | 1.4 fold | 1.4 fold | 1.8 times | 1.8 times | 3.4 times | 3.2 times | 2.2 times | 2.1 times | 6.1 s |  | 
2 | 4.5 nM | ia | ia | Cc1cc([Se]C(Cc2ccccc2)c2ccc(-c3ccc(C(F)(F)F)cc3)cc2)ccc1OCC(=O)O (centres unmarked) [Compound S164] |  |  |  |  |  |  |  |  |  |  |  |  |  |  |  | 
3 |  |  |  | CCCc1c(OCCCOc2ccc(OCC(=O)O)cc2)ccc(C(C)=O)c1O [Compound L-165041] |  |  |  |  |  |  |  |  |  |  |  |  |  |  | 530 nM | 10 times
4 | 2.6 nM | ia | ia | Cc1cc(SC(Cc2ccccc2)c2ccc(-c3ccc(C(F)(F)F)cc3)cc2)ccc1OCC(=O)O (centres unmarked) [Compound S14] | 31% | 21 s | 12 s | lower | had diabetes improving effect | 1.5 fold | 1.5 fold | 2.2 times | 2.1 times | 3.9 times | 3.6 times | 2.5 times | 2.4 times | 5.2 s |  | 
5 | 9.3 nM | ia | ia | Cc1cc(SC(Cc2ccccc2)c2ccc(-c3ccc(C(F)(F)F)cc3)cc2)ccc1OC(C)(C)C(=O)O (centres unmarked) [Compound 22] |  |  |  |  |  |  |  |  |  |  |  |  |  |  |  | 
6 | 3.7 nM | ia | ia | Cc1cc(SC(Cc2ccccc2)c2ccc(-c3cc(F)c(F)c(F)c3)cc2)ccc1OCC(=O)O (centres unmarked) [Compound 46] | 43% | 27 s | 18 s | lower | had diabetes improving effect | 1.3 fold | 1.3 fold | 1.5 times | 1.5 times | 3.0 times | 2.8 times | 1.9 times | 1.9 times | 7.8 s |  | 
7 | 12 nM | ia | ia | CCC(Oc1ccc(SC(Cc2ccccc2)c2ccc(-c3ccc(C(F)(F)F)cc3)cc2)cc1C)C(=O)O (centres unmarked) [Compound 23] |  |  |  |  |  |  |  |  |  |  |  |  |  |  |  | 
8 | 53 nM | ia | ia | Cc1cc([Se]Cc2ccc(-c3ccc(C(F)(F)F)cc3)cc2)ccc1OCC(=O)O [Compound S306] |  |  |  |  |  |  |  |  |  |  |  |  |  |  |  | 
9 | 33 nM | ia | ia | Cc1cc(SC(Cc2c(F)cccc2C(F)(F)F)c2ccc(-c3ccccc3)cc2)ccc1OCC(=O)O (centres unmarked) [Compound 66] |  |  |  |  |  |  |  |  |  |  |  |  |  |  |  | 
